Test results as given in patent US20250268876A1, “TREATMENT OF HIDRADENITIS SUPPURATIVA WITH ORISMILAST” (UNION THERAPEUTICS A/S, priority 2021, published 2025).
Several values for one entry are separate records, joined by “and”; a condition that tells them apart may be missing. Identical values can stand only once. Like-named read-outs stand apart in the source and are kept apart here. Marks after values point to notes of the source that are not given here.

Columns and labels:
[1] = test system: TNF-α secretion from human whole blood; experiment: Whole blood TNF-α secretion assay (LPS or SEB); assay type: cell-based
[2] = test system: Hidradenitis suppurativa (HS); details: two phase II studies, moderate HS; none of the patients in the placebo group; cited from earlier work
[3] = Emesis study in ferrets; details: ferret, in vivo, po
[4] = test system: conscious, unrestrained ferret; details: in vivo, po, 1 mg/kg
[5] = test system: TNF-α; experiment: LPS-induced TNF-α in ferrets after single oral administration; details: oral 1 and 3 mg/kg; 1 hour after LPS (3 mg/kg ip)
[6] = Homo sapiens, 24 h, SEB 1 μg/mL, 24 hours, donor 1, read-out: Emax
[7] = Homo sapiens, 48 h, SEB 1 μg/mL, 48 hours, donor 1, read-out: Emax
[8] = Homo sapiens, 48 h, SEB 1 μg/mL, 48 hours, donor 2, read-out: Emax

Which results are given for `CCOc1cc([C@@H](CS(C)(=O)=O)N2C(=O)c3cccc(NC(C)=O)c3C2=O)ccc1OC` [Apremilast]?
Emax ([1]; Homo sapiens, 24 h, LPS 1 μg/mL, 24 hours, donor 1, Emax defined as TNF-α level in un-stimulated wells, read-out: Emax): 74%; EC50 ([1]; Homo sapiens, 24 h, LPS 1 μg/mL, 24 hours, donor 1, read-out: EC50): 210 nM; EC50 ([1]; Homo sapiens, 24 h, LPS 1 μg/mL, 24 hours, donor 2, read-out: EC50): 283 nM; Emax ([1]; Homo sapiens, 24 h, LPS 1 μg/mL, 24 hours, donor 2, read-out: Emax): 79%; Emax [1, 6]: 98%; EC50 ([1]; Homo sapiens, 24 h, SEB 1 μg/mL, 24 hours, donor 2, read-out: EC50): 620 nM; Emax ([1]; Homo sapiens, 24 h, SEB 1 μg/mL, 24 hours, donor 2, read-out: Emax): 65%; EC50 ([1]; Homo sapiens, 48 h, LPS 1 μg/mL, 48 hours, donor 1, read-out: EC50): 277 nM; Emax ([1]; Homo sapiens, 48 h, LPS 1 μg/mL, 48 hours, donor 1, read-out: Emax): 77%; EC50 ([1]; Homo sapiens, 48 h, LPS 1 μg/mL, 48 hours, donor 2, read-out: EC50): 364 nM; Emax ([1]; Homo sapiens, 48 h, LPS 1 μg/mL, 48 hours, donor 2, read-out: Emax): 78%; EC50 ([1]; Homo sapiens, 48 h, SEB 1 μg/mL, 48 hours, donor 1, read-out: EC50): 155 nM; Emax [1, 7]: 97%; EC50 ([1]; Homo sapiens, 48 h, SEB 1 μg/mL, 48 hours, donor 2, read-out: EC50): 573 nM; Emax [1, 8]: 80%; EC50 ([1]; Homo sapiens, mean of 8 determinations (LPS and SEB, 24 and 48 hours, 2 donors), read-out: Geometric mean of EC50 values across different assay parameters): 287 nM and 0.132 µg/mL; treated patients with a positive HS clinical response (HiSCR) [2]: more than 50%

With `O=C(Nc1c(Cl)c[n+]([O-])cc1Cl)c1ccc(OC(F)F)c(OCC2CC2)c1` [Roflumilast N-oxide] as the molecule, how does the Emax ([1]; LPS 1 μg/mL, 24 hours, donor 1, Emax defined as TNF-α level in un-stimulated wells) read?
Its Emax is 72.

And the EC50 ([1]; LPS 1 μg/mL, 24 hours, donor 1, read-out: EC50)?
Its EC50 is 23.4 nM.

And the Emax ([1]; LPS 1 μg/mL, 24 hours, donor 2)?
Its Emax is 79.

What about the EC50 ([1]; LPS 1 μg/mL, 24 hours, donor 2, read-out: EC50) of the same molecule?
The EC50 was 24 nM.

And the Emax ([1]; LPS 1 μg/mL, 48 hours, donor 1)?
Its Emax is 75.

And the EC50 ([1]; LPS 1 μg/mL, 48 hours, donor 1, read-out: EC50)?
The EC50 was 38.6 nM.

And the Emax ([1]; LPS 1 μg/mL, 48 hours, donor 2)?
Its Emax is 78.

And the EC50 ([1]; LPS 1 μg/mL, 48 hours, donor 2, read-out: EC50)?
Its EC50 is 35 nM.

And the Emax ([1]; SEB 1 μg/mL, 24 hours, donor 1)?
Its Emax is 97.

What about the EC50 ([1]; SEB 1 μg/mL, 24 hours, donor 1, read-out: EC50) of the same molecule?
Its EC50 is 8.69 nM.

And the Emax ([1]; SEB 1 μg/mL, 24 hours, donor 2)?
The Emax was 66.

What about the EC50 ([1]; SEB 1 μg/mL, 24 hours, donor 2, read-out: EC50) of the same molecule?
The EC50 was 35.6 nM.

What about the Emax ([1]; SEB 1 μg/mL, 48 hours, donor 1) of the same molecule?
Its Emax is 97.

What about the EC50 ([1]; SEB 1 μg/mL, 48 hours, donor 1, read-out: EC50) of the same molecule?
Its EC50 is 4.77 nM.

What about the Emax ([1]; SEB 1 μg/mL, 48 hours, donor 2) of the same molecule?
Its Emax is 80.

And the EC50 ([1]; SEB 1 μg/mL, 48 hours, donor 2, read-out: EC50)?
The EC50 was 33.4 nM.

What about the “Geometric mean of EC50 values across different assay parameters” value ([1]; mean of 8 determinations (LPS and SEB, 24 and 48 hours, 2 donors)) of the same molecule?
The value was 8.80 ng/mL.

What about the EC50 ([1]; mean of 8 determinations (LPS and SEB, 24 and 48 hours, 2 donors), read-out: Geometric mean of EC50 values across different assay parameters) of the same molecule?
The EC50 was 21 nM.

Which NOAEL at 3 h [3] does the source give for `O=C(Nc1c(Cl)cncc1Cl)c1ccc(OC(F)F)c(OCC2CC2)c1` [Roflumilast] here?
The NOAEL at 3 h was 1 mg/kg.

And the Emetogenic properties [4]?
The Emetogenic properties was “absent”.

What about the “increase of TNF-α levels observed at 1 hour” value [5] of the same molecule?
Its value is “attenuated in a dose-related manner”.

With `C[C@@H]1CCN(C(=O)CC#N)C[C@@H]1N(C)c1ncnc2[nH]ccc12` [Tofacitinib] as the molecule, how does the Emax [1, 6] read?
The Emax was 98%.

And the Emax [1, 7]?
The Emax was 95%.

And the Emax [1, 8]?
The Emax was 102%.

And the “Effect on TNF-α secretion (in words)” value ([1]; LPS 1 μg/mL, 24 hours)?
The value was “Stimulation”.

And the “Effect on TNF-α secretion (in words)” value ([1]; LPS 1 μg/mL, 48 hours)?
Its value is “Stimulation”.

What about the Emax ([1]; SEB 1 μg/mL, 24 hours, donor 2) of the same molecule?
Its Emax is 100*.
